Results on 36 compounds are retold here after ChEMBL document CHEMBL5291721, “A preclinical secondary pharmacology resource illuminates target-adverse drug reaction associations of marketed drugs” (Nat Commun, 2023).

One experiment has as its target Estrogen receptor beta (Homo sapiens, UniProt Q92731).
Another experiment addresses D(1A) dopamine receptor (Homo sapiens, UniProt P21728).
Experiment [1] deals with T1, Alpha-2A adrenergic receptor (Homo sapiens, UniProt P08913).
T1 sequence (P08913 whole entry): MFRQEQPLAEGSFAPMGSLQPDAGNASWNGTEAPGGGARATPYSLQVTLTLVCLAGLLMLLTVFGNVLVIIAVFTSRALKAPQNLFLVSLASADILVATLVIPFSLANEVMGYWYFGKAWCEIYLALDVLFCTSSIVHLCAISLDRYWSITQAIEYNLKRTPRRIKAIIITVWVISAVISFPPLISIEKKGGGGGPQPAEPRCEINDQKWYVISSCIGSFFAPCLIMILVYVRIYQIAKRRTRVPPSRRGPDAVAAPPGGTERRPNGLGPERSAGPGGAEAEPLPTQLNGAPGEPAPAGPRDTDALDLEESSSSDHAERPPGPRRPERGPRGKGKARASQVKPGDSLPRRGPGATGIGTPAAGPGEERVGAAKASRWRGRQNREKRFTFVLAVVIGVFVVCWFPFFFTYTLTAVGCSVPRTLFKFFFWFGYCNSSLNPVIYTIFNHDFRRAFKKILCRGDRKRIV

For a further experiment, the target named is T2, B1 bradykinin receptor (Homo sapiens, UniProt P46663).
T2 sequence (P46663 whole entry): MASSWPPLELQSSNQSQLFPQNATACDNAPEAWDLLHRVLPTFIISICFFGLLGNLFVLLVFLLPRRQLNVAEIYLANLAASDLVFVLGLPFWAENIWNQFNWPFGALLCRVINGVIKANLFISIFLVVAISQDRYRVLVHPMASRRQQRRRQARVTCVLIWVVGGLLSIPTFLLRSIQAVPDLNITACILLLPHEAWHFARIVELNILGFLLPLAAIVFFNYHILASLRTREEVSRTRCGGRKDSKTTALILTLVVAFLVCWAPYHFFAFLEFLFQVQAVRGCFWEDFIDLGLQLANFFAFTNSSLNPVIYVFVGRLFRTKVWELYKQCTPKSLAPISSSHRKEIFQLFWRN

The target in experiment [2] is T3, Muscarinic acetylcholine receptor M2 (Homo sapiens, UniProt P08172).
T3 sequence (P08172 whole entry): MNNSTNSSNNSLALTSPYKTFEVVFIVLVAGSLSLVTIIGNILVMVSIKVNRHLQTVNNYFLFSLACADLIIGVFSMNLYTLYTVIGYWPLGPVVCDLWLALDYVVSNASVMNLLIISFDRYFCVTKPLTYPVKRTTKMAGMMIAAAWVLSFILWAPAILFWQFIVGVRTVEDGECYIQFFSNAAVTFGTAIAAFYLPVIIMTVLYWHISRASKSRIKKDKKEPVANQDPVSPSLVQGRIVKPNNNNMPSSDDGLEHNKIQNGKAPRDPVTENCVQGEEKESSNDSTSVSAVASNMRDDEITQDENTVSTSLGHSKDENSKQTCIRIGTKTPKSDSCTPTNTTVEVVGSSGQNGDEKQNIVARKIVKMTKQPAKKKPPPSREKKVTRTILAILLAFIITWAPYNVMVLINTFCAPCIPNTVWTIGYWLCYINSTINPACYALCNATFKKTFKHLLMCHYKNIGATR

The target of another experiment is T4, Androgen receptor (Rattus norvegicus, UniProt P15207).
T4 sequence (P15207 whole entry): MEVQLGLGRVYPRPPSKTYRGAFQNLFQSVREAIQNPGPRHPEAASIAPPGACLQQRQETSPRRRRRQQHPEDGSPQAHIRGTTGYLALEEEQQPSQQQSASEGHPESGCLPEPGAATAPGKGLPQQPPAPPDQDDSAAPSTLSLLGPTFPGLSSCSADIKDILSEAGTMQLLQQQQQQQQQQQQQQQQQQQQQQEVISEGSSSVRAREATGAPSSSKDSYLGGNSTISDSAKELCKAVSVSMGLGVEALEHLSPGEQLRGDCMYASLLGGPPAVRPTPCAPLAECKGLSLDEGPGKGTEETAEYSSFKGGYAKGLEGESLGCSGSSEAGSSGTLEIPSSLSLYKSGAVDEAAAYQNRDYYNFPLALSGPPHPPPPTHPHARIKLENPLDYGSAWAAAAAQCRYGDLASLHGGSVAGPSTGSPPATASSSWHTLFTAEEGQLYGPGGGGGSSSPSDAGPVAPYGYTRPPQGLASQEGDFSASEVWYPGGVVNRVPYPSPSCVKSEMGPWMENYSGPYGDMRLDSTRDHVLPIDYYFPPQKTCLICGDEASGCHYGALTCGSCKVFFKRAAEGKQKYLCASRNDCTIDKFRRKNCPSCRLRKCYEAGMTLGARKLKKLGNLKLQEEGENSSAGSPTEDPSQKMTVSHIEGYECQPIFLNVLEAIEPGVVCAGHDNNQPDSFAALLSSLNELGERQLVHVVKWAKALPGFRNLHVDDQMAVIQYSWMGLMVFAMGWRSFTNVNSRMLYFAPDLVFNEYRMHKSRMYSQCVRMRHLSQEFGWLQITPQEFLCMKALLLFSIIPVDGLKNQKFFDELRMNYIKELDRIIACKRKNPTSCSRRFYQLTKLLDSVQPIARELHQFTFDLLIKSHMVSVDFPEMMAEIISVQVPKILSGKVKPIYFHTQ
The class given is functional.

The target in experiment [3] is Gamma-aminobutyric acid receptor subunit alpha-1/alpha-2/beta-2/gamma-2 (Homo sapiens, UniProt P14867+P18507+P47869+P47870). Format: functional, cell-based.
In experiment [4] the target is 5-hydroxytryptamine receptor 2A (Homo sapiens, UniProt P28223).

Where a SMILES comes first, the peptide text is derived from it.
Also: assay procedure not described here.

Chain of Estrogen receptor beta (Q92731 whole entry): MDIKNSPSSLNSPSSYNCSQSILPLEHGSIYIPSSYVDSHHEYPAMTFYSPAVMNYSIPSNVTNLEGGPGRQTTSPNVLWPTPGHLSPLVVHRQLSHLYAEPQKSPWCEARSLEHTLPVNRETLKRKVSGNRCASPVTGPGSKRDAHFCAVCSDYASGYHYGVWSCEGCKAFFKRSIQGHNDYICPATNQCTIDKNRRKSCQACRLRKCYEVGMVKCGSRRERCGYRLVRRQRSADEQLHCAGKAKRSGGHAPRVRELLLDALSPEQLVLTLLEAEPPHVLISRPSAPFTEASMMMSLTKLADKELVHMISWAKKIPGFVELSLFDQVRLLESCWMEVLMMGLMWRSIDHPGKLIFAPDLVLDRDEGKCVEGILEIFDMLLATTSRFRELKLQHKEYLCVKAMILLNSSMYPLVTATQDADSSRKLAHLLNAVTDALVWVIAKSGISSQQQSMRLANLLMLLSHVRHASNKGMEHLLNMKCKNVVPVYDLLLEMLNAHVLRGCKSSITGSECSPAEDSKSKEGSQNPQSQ
Chain of Gamma-aminobutyric acid receptor subunit alpha-1/alpha-2/beta-2/gamma-2 (P14867 whole entry): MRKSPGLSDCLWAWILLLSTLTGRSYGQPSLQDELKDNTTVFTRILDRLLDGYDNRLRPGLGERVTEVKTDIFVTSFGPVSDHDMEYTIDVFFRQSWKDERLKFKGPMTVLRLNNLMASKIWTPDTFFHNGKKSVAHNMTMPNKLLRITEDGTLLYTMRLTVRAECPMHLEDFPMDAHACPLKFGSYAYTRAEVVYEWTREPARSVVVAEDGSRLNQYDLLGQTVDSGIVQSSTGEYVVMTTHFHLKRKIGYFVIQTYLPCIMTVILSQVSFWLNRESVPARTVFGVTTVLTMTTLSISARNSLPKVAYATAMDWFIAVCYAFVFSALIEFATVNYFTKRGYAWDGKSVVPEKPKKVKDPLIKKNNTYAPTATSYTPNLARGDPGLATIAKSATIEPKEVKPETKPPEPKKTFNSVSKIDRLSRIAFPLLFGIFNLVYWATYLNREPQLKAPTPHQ
Chain of Gamma-aminobutyric acid receptor subunit alpha-1/alpha-2/beta-2/gamma-2 (P47870 whole entry): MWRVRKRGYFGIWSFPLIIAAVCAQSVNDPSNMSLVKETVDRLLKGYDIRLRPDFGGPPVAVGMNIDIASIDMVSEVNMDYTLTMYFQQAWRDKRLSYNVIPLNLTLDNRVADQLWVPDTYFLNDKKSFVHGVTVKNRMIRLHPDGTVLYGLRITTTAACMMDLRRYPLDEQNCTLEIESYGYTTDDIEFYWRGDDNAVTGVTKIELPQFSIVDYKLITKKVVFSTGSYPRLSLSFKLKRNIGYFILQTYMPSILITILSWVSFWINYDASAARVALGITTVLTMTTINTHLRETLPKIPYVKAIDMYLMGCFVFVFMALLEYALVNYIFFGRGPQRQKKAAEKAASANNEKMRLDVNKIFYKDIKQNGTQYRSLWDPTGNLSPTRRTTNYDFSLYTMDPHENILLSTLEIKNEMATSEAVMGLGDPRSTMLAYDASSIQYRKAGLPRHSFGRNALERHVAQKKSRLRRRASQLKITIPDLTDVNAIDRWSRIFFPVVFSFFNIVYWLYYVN
Chain of Gamma-aminobutyric acid receptor subunit alpha-1/alpha-2/beta-2/gamma-2 (P18507 whole entry): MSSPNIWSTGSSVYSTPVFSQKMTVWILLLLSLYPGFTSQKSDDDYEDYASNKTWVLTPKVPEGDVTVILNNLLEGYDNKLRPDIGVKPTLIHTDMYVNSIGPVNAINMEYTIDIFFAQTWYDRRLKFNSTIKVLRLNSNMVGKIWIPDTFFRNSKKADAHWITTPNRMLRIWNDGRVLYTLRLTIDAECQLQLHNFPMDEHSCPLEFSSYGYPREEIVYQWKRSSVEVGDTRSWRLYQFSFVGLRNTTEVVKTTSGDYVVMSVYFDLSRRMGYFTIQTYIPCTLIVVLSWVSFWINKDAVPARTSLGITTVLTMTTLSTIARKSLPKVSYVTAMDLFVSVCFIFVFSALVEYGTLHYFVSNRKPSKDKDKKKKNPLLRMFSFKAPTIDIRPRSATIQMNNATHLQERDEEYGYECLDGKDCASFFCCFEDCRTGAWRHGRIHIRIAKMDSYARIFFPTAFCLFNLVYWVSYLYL
Chain of Gamma-aminobutyric acid receptor subunit alpha-1/alpha-2/beta-2/gamma-2 (P47869 whole entry): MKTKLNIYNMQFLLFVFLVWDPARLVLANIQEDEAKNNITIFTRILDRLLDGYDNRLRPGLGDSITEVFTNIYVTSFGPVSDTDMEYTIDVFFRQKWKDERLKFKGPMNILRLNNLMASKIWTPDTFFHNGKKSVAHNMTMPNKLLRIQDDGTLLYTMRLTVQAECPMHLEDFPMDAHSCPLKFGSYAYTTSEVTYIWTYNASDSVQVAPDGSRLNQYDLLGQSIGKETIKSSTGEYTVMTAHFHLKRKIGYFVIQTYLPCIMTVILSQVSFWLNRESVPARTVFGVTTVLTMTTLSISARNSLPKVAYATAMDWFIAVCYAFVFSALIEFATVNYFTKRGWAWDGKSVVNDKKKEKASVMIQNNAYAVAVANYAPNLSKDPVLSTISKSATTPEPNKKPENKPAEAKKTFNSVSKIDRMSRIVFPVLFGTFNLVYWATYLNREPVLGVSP
Chain of 5-hydroxytryptamine receptor 2A (P28223 whole entry): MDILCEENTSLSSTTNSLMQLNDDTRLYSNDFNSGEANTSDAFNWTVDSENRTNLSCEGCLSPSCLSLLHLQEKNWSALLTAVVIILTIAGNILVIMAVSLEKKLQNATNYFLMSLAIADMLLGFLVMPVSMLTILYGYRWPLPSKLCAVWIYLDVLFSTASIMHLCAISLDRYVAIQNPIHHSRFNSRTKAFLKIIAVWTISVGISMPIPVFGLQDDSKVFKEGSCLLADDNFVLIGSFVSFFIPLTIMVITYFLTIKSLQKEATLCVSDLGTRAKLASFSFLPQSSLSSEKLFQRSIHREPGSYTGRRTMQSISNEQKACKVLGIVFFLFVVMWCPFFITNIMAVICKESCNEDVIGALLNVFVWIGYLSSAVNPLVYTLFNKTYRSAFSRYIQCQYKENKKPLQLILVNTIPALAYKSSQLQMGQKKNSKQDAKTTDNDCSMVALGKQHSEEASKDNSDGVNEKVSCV
Chain of D(1A) dopamine receptor (P21728 whole entry): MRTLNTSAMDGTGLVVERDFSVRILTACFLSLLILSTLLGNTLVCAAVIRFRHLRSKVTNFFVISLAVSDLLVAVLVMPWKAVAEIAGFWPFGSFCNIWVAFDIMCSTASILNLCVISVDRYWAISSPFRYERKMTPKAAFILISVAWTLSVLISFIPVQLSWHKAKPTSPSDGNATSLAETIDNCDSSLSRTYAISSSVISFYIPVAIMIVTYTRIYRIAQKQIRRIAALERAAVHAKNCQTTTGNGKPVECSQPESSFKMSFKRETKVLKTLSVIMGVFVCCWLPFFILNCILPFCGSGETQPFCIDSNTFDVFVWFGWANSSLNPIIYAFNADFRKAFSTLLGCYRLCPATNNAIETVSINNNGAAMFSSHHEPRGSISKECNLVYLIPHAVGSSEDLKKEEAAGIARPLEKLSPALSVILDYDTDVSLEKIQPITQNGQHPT

In general, AC50 refers to the concentration at which the activity in the assay is half-maximal. A higher AC50 goes with activity only at high concentration. On to `CC1=C(CC(=O)O)c2cc(F)ccc2/C1=C\c1ccc([S+](C)[O-])cc1` (stereo unspecified), for which the AC50 was more than 30 µM at Estrogen receptor beta; more than 10 µM at D(1A) dopamine receptor; more than 10 µM in experiment [1]; more than 30 µM at B1 bradykinin receptor; more than 10 µM in experiment [2].
The compound `O=C(O)c1ccc2nc(-c3cc(Cl)cc(Cl)c3)oc2c1` came in with an AC50 on Androgen receptor of more than 30 µM.
For the compound `NS(=O)(=O)c1ccc(N2CCCCS2(=O)=O)cc1`, the AC50 (on Androgen receptor; in experiment [3]) was more than 30 µM throughout.
`C[C@H](N)C(=O)N[C@@H](CCC(N)=O)C(=O)O` [ALANYL GLUTAMINE] (H-Ala-Gln-OH) yielded an AC50 at Androgen receptor of more than 30 µM.
With `Cc1nnc2n1-c1ccc(Cl)cc1C(c1ccccc1)=NC2` [ALPRAZOLAM], the AC50 on Estrogen receptor beta was more than 30 µM; on D(1A) dopamine receptor it was more than 10 µM; in experiment [1] it was more than 10 µM; at B1 bradykinin receptor it was more than 30 µM; in experiment [2] it was more than 10 µM.
As to `COc1ccc(-n2nc(C(N)=O)c3c2C(=O)N(c2ccc(N4CCCCC4=O)cc2)CC3)cc1` [APIXABAN], the AC50 (on Androgen receptor; in experiment [3]) was more than 30 µM each time.
In turn, `CCN(CC)CCCN(c1ccccc1)C1Cc2ccccc2C1` [APRINDINE] registered an AC50 in experiment [3] of more than 30 µM.
As for `CC(=O)OCC1=C(C(=O)O)N2C(=O)[C@@H](NC(=O)Cc3cccs3)[C@H]2SC1` [CEPHALOTHIN], in experiment [3], the AC50 was more than 30 µM.
Consider `CC1=C(C(=O)O)N2C(=O)[C@@H](NC(=O)[C@H](N)C3=CCC=CC3)[C@H]2SC1` [CEPHRADINE], for which, in experiment [3], the AC50 was more than 30 µM.
The compound `COc1ccc(C(Cl)=C(c2ccc(OC)cc2)c2ccc(OC)cc2)cc1` [CHLOROTRIANISENE] showed an AC50 in experiment [3] of more than 30 µM.
With `Oc1cc(O)c2c(c1)O[C@H](c1ccc(O)c(O)c1)[C@@H](O)C2` [CIANIDANOL], the AC50 at Estrogen receptor beta is more than 30 µM; in experiment [4], more than 10 µM; on D(1A) dopamine receptor, more than 10 µM; in experiment [1] it was more than 10 µM; at B1 bradykinin receptor, more than 30 µM; in experiment [2] it was more than 10 µM.
In turn, `CCCO[C@H]1[C@@H]([C@@H](COCc2ccc(Cl)cc2)OCc2ccc(Cl)cc2)OC(OCC)[C@@H]1O` (stereo partly specified) [CLOBENOSIDE] yielded an AC50 on Androgen receptor of more than 30 µM.
In experiment [4], `C=C(c1ccccc1OCc1cccc(Cl)c1)n1ccnc1` [CROCONAZOLE] showed an AC50 of 1.11 µM. This counts as single-digit micromolar.
With `CN(C)CCOC(=O)C(c1ccccc1)C1(O)CCCC1` (stereo unspecified) [CYCLOPENTOLATE], the AC50 in experiment [2] is 0.624 µM. This lies in the sub-micromolar range.
Compound `CCCCCCOC(=O)NC(=N)c1ccc(NCc2nc3cc(C(=O)N(CCC(=O)OCC)c4ccccn4)ccc3n2C)cc1` [DABIGATRAN ETEXILATE] yielded an AC50 in experiment [3] of more than 30 µM.
On to `CC(=O)Oc1cccc2c1C(=O)c1c(OC(C)=O)cc(C(=O)O)cc1C2=O` [DIACEREIN], for which the AC50 on Androgen receptor was more than 30 µM.
With `CCN(CC)C(C)C(=O)c1ccccc1` (stereo unspecified) [DIETHYLPROPION], the AC50 was more than 10 µM at D(1A) dopamine receptor, 4.46 µM in experiment [1], more than 30 µM on B1 bradykinin receptor and more than 10 µM in experiment [2].
In the case of `CCN1C(=O)NC(c2ccccc2)C1=O` (stereo unspecified) [ETHOTOIN], in experiment [3], the AC50 was more than 30 µM.
On to `Cc1cnc(Nc2ccc(OCCN3CCCC3)cc2)nc1Nc1cccc(S(=O)(=O)NC(C)(C)C)c1` [FEDRATINIB], for which the AC50 in experiment [4] was 3.12 µM. This counts as single-digit micromolar.
On to `CC(=O)OCC(=O)[C@@]1(O)CC[C@H]2[C@@H]3CCC4=CC(=O)CC[C@]4(C)[C@@]3(F)[C@@H](O)C[C@@]21C` [FLUDROCORTISONE ACETATE], for which the AC50 on Androgen receptor is more than 30 µM.
At Androgen receptor, `Cc1ccc(S(=O)(=O)NC(=O)N[C@H]2[C@H]3CC[C@@](C)([C@H]2O)C3(C)C)cc1` [GLIBORNURIDE] gave an AC50 of more than 30 µM.
For the compound `N=C(N)NC(=O)Cc1c(Cl)cccc1Cl` [GUANFACINE], the AC50 in experiment [3] was more than 30 µM.
Regarding `CC1Cc2ccccc2N1NC(=O)c1ccc(Cl)c(S(N)(=O)=O)c1` (stereo unspecified) [INDAPAMIDE], the AC50 in experiment [1] is more than 10 µM.
In experiment [2], `CN1CCC(=C2c3ccccc3CC(=O)c3sccc32)CC1` [KETOTIFEN] registered an AC50 of 0.432 µM.
Consider `CCC(=O)O[C@H](CC(=O)O)C[N+](C)(C)C` [LEVOCARNITINE PROPIONATE], for which the AC50 (at Androgen receptor; in experiment [3]) was more than 30 µM in each case.
As for `CCN(CC)CC(=O)Nc1c(C)cccc1C` [LIDOCAINE], the AC50 on Estrogen receptor beta and at B1 bradykinin receptor was more than 30 µM throughout.
Turning to `O=C(O)c1nn(Cc2ccc(Cl)cc2Cl)c2ccccc12` [LONIDAMINE], on Androgen receptor, the AC50 was more than 30 µM.
With `COC(=O)c1ccc2c(c1)NC(=O)/C2=C(\Nc1ccc(N(C)C(=O)CN2CCN(C)CC2)cc1)c1ccccc1` [NINTEDANIB], the AC50 (on Androgen receptor; in experiment [3]) was more than 30 µM in each case.
Regarding `CN1CCCN=C1/C=C/c1cccc(O)c1` [OXANTEL], the concentration at half-maximal activity (AC50) at Androgen receptor was 26 µM.
For the compound `CC1NCCOC1c1ccccc1` (stereo unspecified) [PHENMETRAZINE], the AC50 was more than 30 µM at Estrogen receptor beta; more than 10 µM in experiment [4]; more than 10 µM at D(1A) dopamine receptor; more than 30 µM at B1 bradykinin receptor; more than 10 µM in experiment [2].
Turning to `CC(C)(N)Cc1ccccc1` [PHENTERMINE], the AC50 on Estrogen receptor beta is more than 30 µM; in experiment [4] it was more than 10 µM; at D(1A) dopamine receptor, more than 10 µM; at B1 bradykinin receptor it was more than 30 µM; in experiment [2], more than 10 µM.
Compound `CS(=O)(=O)NC(=O)CCC/C=C\C[C@H]1C(=O)C[C@@H](O)[C@@H]1/C=C/[C@@H](O)COc1ccccc1` [SULPROSTONE] gave an AC50 in experiment [3] of more than 30 µM.
On to `CCCCOC(=O)C(=O)Nc1cccc(-c2nnn[nH]2)c1` [TAZANOLAST], for which, on Androgen receptor, the AC50 was more than 30 µM.
Take `CCCCC[C@H](O)CC[C@@H]1[C@H]2Cc3cccc(OCC(=O)O)c3C[C@H]2C[C@H]1O` [TREPROSTINIL]: the AC50 on Androgen receptor is more than 30 µM.
Still for that read-out and setting: to `CN(C)CCOCC(=O)NC12CC3CC(CC(C3)C1)C2` [TROMANTADINE] belongs more than 30 µM.
Take `CCCCCCCC(=O)CC[C@@H]1[C@@H](C/C=C\CCCC(=O)O)[C@@H](O)C[C@H]1O` [UNOPROSTONE]: the AC50 (at Androgen receptor; in experiment [3]) was more than 30 µM throughout.
